Where two headings read alike, the source gives them in different places. Bridge positions count the residues as written; N and C are the ends. Square brackets hold non-standard residues; d marks the D form. Triazole bridges read from a SMILES are 1,4-linked. Peptide text beside a SMILES is read from it. * marks the point of attachment. Biotinyl(3aR,4R,6aS) = O=C1N[C@@H]2[C@@H](CS[C@@H]2CCCCC(=O)*)N1; dTrp(1-Me) = Cn1cc(C[C@@H](N)C(=O)O)c2ccccc21; Lys(N3) = [N-]=[N+]=NCCCC[C@H](N)C(=O)O; AEEEA = NCCOCCOCCOCC(=O)O; Pra = C#CC[C@H](N)C(=O)O
Tests used:
murine IDO1 protein = murine IDO1 protein (Mus musculus, UniProt P28776); experiment: ELISA against murine IDO1 protein (species cross-reactivity); type: binding
Sequence of murine IDO1 protein (P28776 whole entry): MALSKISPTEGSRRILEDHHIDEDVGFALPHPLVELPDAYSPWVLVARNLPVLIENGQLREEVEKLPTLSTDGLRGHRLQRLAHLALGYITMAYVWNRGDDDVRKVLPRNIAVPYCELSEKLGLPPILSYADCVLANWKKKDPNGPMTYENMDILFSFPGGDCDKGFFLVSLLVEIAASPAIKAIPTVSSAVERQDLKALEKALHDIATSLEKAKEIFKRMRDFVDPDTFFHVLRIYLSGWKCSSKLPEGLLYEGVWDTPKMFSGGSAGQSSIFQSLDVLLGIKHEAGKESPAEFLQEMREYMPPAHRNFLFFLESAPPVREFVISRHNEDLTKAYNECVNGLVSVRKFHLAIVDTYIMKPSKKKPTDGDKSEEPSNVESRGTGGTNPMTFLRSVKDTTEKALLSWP
Procedure: Protocol: A black 96-well NEUTRAVIDIN® Coated High Binding Capacity plate (15510, Pierce) was coated with 2 μM biotinylated macrocyclic peptide ligand in TBS (25 mM Tris-HCl, 150 mM NaCl, pH 7.6) for 2 h at room temperature. The plate was aspirated and then washed with Wash Buffer (0.05% (v/v) TWEEN® 20 in PBS, 6×). His-tagged IDO1 human recombinant protein (71182, BPS Biosciences) was serially diluted in Wash Buffer (from 200 to 0 nM) and incubated in the designated microwells for 1 h at room temperature. Microwells were aspirated and subsequently washed with Wash Buffer (11×). To detect the bound IDO1 protein, Alkaline Phosphatase (AP)-conjugated Anti-6×HIS TAG® antibody [HIS-1] (ab49746, Abcam) was prepared at 1:10,000 dilution and added to the microwells for 1 h at room temperature. The plate was aspirated and washed with Wash Buffer (5×). ATTOPHOS® AP Fluorescent Substrate System (S1000, Promega) was employed to develop the microwells. Using an excitation wavelength of 430 nm, fluorescent emission at 535 nm was recorded by Beckman Coulter DTX880 photometer. Titration curves were fit using a four-parameter regression curve fitting program to determine EC50 values.
To test for cross-reactivity with murine IDO1, the human IDO1 targeted macrocyclic peptide ligands were assayed against the murine IDO1 protein by ELISA.

[1] = Percent organic elution in reverse-phase HPLC (C18) as lipophilicity readout; type: physicochemical; conditions: Table 12; C18, A=water+0.1% TFA, B=acetonitrile+0.1% TFA
From the text: The predicted increase in lipophilicity for wyvay (SEQ ID NO:2) was experimentally confirmed by the percent organic (% B) elution during reverse-phase HPLC (RP-HPLC) using a C18 column where solvents A=water+0.1% TFA and B=acetonitrile+0.1% TFA.

[2] = biological target: T1, His-tagged IDO1 human recombinant protein (Homo sapiens, UniProt P14902); experiment: IDO1 ELISA (Affinity Assay): sandwich ELISA, biotinylated ligand immobilized on NEUTRAVIDIN plate; type: binding
T1 construct: purchased BPS Biosciences 71182
T1 sequence (P14902 whole entry): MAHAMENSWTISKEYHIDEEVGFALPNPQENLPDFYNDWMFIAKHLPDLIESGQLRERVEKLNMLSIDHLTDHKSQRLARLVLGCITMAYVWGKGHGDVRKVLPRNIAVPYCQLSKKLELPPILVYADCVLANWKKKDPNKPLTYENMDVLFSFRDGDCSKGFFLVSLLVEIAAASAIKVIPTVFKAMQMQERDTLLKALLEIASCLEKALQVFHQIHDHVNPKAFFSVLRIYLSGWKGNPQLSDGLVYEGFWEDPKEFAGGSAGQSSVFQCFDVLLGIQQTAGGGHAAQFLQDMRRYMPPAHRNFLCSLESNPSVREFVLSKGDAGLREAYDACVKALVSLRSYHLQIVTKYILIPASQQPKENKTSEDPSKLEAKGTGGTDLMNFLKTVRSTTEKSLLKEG

[3] = biological target: T1, His-tagged IDO1 human recombinant protein; experiment: as above; type: binding; conditions: a solution of 200 nM macrocycle was immobilized; read-out: EC50, sandwich ELISA for human IDO1 protein against biotin-PEG3-modified macrocycle

HPLC % B [1] [%]	EC50 ([2]; 2 μM biotinylated macrocycle immobilized, human IDO1 titrated 200 to 0 nM, read-out: EC50, sandwich ELISA for human IDO1 protein against biotin-PEG3-modified macrocycle) [µM]	EC50 ([2]; Example 9, read-out: Binding affinity (EC50) of prioritized Epitope 1 hits) [µM]	EC50 ([2]; Table 12, read-out: EC50) [µM]	EC50 (murine IDO1 protein; Table 10, read-out: Mouse IDO EC50) [µM]	EC50 [3] [µM]	EC50 ([2]; Table 10, read-out: Human IDO EC50) [µM]	Structure (SMILES)	Selectivity human versus mouse IDO1 by ELISA (murine IDO1 protein; FIG. 2F)
25.7	0.025	0.025	0.025	–	–	–	C[C@H]1NC(=O)[C@@H](CCCNC(=N)N)NC(=O)[C@@H](Cc2ccc(O)cc2)NC(=O)[C@@H](Cc2c[nH]c3ccccc23)NC(=O)[C@@H](NC(=O)COCCOCCOCCNC(=O)CCCC[C@H]2SC[C@H]3NC(=O)N[C@H]32)CC2=CC(CCCC[C@@H](C(N)=O)NC(=O)[C@@H](Cc3ccc(O)cc3)NC1=O)N=N2 (some centres unmarked) [wyray, biotin-PEG3-Cy(wyray)]	selectivity for the human recombinant protein over mouse is observed
–	–	–	–	0.017	0.081	0.091 ± 0.022	Cn1cc(C[C@H]2NC(=O)[C@@H](CO)NC(=O)[C@@H](Cc3ccc(O)cc3)NC(=O)[C@@H](CCCNC(=N)N)NC(=O)[C@@H](NC(=O)COCCOCCOCCNC(=O)CCCC[C@H]3SC[C@H]4NC(=O)N[C@H]43)Cc3cn(nn3)CCCC[C@@H](C(N)=O)NC(=O)[C@@H](CCCNC(=N)N)NC2=O)c2ccccc21 [rys(Me-Trp)r, biotin-PEG3-Cy(rys(Me-Trp)r)] ({Biotinyl(3aR,4R,6aS)-AEEEA}-[Pra][dR][dY][dS][dTrp(1-Me)][dR][Lys(N3)]-NH2; triazole 1-7)	–

— patent US12216122B2, “Compositions and methods relating to detection, inhibition, and imaging of indoleamine 2,3-dioxygenase 1 (IDO1)” (Regeneron Pharmaceuticals, Inc., priority 2019, dated 2025)
